A short description of assay [1]: GPCRScan assay: inhibition of GABA/PBR. Details: species or system Rattus norvegicus; radioligand conc. used [nm] 0.3 – 2.0, parental cells brain tissue.
The target of assay [2] is Activin receptor type-1-like (Homo sapiens) (UniProt P37023). Nature of the assay: ALK1(h) Eurofins kinase panel. The note with it: Compound concentration 1.0 uM.
The target in assay [3] is 5'-AMP-activated protein kinase catalytic subunit alpha-1 (Homo sapiens, UniProt Q13131). The assay is described as follows: Eurofins kinase panel (PRKAA1). Details: compound concentration 1 uM.
The next assay relates to NCI-H460. The assay is described as follows: NCI- H460 cell line Proliferation assay. The assay is classed as functional, Homo sapiens. The settings on record: time 3 day.
Assay [4] addresses Serine/threonine-protein kinase SIK2 (Homo sapiens) (UniProt Q9H0K1). Nature of the assay: SIK2(h) Eurofins kinase panel. The settings on record: Compound concentration 1.0 uM.
Assay [5] addresses Mitogen-activated protein kinase 1 (Homo sapiens) (UniProt P28482). Nature of the assay: MAPK2(h) Eurofins kinase panel. The settings on record: Compound concentration 1.0 uM.
The target of assay [6] is PI3K p110 beta/p85 alpha (Homo sapiens) (UniProt P27986+P42338). Nature of the assay: PI3 Kinase(p110b/p85a)(h) Eurofins kinase panel. Type of assay: protein-complex assay. The note with it: Compound concentration 1.0 uM.
Sequence of PI3K p110 beta/p85 alpha (Homo sapiens) (P27986 2-724 limits assumed): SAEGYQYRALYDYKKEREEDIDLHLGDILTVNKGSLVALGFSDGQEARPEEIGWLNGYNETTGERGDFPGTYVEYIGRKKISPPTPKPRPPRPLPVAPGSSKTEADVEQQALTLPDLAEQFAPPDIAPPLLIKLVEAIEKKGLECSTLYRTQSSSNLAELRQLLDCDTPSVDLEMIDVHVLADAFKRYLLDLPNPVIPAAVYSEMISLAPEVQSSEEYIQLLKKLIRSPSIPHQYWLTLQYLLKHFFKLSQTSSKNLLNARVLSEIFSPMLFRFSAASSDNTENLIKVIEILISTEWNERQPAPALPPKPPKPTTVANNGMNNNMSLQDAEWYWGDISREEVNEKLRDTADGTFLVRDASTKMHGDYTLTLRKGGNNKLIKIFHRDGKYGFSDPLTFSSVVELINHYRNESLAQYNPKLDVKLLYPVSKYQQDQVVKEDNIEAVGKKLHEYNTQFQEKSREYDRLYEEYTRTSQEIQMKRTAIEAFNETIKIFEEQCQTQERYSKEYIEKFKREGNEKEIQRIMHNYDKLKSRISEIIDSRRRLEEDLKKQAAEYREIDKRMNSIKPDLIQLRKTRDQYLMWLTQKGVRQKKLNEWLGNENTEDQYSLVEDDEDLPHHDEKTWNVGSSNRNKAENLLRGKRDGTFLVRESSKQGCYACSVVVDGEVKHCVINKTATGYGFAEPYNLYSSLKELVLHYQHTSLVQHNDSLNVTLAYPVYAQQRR
Sequence of PI3K p110 beta/p85 alpha (Homo sapiens) (P42338 whole entry partner): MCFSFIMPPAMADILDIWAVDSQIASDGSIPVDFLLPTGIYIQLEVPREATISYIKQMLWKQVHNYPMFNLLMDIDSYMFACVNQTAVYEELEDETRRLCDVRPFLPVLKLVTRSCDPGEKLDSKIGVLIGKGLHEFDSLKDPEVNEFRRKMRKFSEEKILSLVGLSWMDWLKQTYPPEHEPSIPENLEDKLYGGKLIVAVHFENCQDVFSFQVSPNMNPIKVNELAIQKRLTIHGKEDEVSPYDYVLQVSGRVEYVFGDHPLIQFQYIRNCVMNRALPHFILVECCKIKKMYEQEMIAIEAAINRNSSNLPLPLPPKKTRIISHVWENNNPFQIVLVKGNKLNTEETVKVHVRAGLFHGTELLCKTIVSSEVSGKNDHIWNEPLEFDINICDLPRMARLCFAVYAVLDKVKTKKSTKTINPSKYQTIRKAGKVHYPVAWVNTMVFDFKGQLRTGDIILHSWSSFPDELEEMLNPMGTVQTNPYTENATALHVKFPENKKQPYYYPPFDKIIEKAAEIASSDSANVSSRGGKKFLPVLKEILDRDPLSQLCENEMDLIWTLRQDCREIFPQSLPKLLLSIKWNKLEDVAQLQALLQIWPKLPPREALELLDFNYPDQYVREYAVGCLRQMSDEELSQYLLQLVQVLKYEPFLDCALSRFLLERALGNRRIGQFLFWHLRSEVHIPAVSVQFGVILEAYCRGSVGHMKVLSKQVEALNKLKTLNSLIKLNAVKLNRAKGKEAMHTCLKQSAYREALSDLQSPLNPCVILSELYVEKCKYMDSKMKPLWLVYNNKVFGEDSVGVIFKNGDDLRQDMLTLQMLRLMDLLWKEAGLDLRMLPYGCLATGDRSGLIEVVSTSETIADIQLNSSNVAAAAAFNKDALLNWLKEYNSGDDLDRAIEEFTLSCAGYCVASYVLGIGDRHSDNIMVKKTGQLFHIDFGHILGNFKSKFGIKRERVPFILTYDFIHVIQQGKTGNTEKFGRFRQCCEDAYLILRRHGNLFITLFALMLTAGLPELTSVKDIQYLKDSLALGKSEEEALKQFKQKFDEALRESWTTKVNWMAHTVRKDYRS
Assay [7] deals with Serine/threonine-protein kinase MRCK beta (Homo sapiens) (UniProt Q9Y5S2). Nature of the assay: MRCKbeta(h) Eurofins kinase panel. The settings on record: Compound concentration 1.0 uM.
Assay [8] concerns the target Tyrosine-protein kinase JAK2 (Homo sapiens) (UniProt O60674). Nature of the assay: JAK2(h) Eurofins kinase panel. The settings on record: Compound concentration 1.0 uM.
Assay [9] deals with T1, Testis-specific serine/threonine-protein kinase 1 (Homo sapiens) (UniProt Q9BXA7).
T1 sequence (whole entry): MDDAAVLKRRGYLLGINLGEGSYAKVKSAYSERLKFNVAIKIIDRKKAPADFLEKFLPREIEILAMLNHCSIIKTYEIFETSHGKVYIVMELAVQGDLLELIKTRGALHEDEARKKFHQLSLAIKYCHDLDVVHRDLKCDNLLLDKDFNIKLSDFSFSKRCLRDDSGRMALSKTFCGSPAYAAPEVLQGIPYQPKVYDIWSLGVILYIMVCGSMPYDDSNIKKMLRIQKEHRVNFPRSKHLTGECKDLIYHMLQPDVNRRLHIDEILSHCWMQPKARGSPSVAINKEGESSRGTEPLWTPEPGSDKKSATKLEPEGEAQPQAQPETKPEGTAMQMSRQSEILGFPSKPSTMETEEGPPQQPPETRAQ
Nature of the assay: TSSK1(h) Eurofins kinase panel. The note with it: Compound concentration 1.0 uM.

In assay [10] the target is RAC-beta serine/threonine-protein kinase (Homo sapiens) (UniProt P31751). The assay is described as follows: PKBbeta (h) Eurofins kinase panel. The note with it: Compound concentration 1.0 uM.
Sequence of RAC-beta serine/threonine-protein kinase (Homo sapiens) (P31751 whole entry): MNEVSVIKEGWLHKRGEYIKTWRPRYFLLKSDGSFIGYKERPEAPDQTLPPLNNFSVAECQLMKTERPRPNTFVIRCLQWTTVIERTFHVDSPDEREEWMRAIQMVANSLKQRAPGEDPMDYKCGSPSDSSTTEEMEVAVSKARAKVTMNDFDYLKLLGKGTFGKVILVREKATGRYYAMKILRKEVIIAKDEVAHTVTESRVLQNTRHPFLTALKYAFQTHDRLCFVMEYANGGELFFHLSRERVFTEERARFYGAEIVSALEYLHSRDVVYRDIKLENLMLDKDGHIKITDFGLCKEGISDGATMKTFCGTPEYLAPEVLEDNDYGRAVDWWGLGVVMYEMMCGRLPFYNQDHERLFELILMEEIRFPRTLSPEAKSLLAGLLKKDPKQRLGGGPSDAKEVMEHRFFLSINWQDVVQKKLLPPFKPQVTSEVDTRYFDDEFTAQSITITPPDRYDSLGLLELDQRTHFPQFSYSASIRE
Assay [11] concerns the target T2, Serine/threonine-protein kinase ICK (Homo sapiens) (UniProt Q9UPZ9).
T2 sequence (whole entry): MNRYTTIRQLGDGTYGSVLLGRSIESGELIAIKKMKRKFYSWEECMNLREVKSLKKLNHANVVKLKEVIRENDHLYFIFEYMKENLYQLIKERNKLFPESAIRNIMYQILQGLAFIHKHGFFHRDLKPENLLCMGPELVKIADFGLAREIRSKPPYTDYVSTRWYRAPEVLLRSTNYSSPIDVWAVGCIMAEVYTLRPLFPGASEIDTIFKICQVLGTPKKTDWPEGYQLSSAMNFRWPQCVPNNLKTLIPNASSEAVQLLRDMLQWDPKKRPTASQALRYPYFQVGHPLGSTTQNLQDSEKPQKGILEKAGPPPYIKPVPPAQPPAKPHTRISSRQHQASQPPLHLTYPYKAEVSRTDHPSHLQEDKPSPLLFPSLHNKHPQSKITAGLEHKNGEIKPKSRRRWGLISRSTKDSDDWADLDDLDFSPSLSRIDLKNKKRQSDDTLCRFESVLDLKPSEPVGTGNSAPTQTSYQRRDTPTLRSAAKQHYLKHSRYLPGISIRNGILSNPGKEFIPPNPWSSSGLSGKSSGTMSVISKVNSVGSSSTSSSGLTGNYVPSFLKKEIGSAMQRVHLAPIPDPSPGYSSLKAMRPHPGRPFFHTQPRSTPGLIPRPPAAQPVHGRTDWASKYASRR
The assay is described as follows: ICK(h) Eurofins kinase panel. The note with it: Compound concentration 1.0 uM.

Assay [12] concerns the target T3, Ephrin type-B receptor 3 (Homo sapiens) (UniProt P54753).
T3 sequence (whole entry): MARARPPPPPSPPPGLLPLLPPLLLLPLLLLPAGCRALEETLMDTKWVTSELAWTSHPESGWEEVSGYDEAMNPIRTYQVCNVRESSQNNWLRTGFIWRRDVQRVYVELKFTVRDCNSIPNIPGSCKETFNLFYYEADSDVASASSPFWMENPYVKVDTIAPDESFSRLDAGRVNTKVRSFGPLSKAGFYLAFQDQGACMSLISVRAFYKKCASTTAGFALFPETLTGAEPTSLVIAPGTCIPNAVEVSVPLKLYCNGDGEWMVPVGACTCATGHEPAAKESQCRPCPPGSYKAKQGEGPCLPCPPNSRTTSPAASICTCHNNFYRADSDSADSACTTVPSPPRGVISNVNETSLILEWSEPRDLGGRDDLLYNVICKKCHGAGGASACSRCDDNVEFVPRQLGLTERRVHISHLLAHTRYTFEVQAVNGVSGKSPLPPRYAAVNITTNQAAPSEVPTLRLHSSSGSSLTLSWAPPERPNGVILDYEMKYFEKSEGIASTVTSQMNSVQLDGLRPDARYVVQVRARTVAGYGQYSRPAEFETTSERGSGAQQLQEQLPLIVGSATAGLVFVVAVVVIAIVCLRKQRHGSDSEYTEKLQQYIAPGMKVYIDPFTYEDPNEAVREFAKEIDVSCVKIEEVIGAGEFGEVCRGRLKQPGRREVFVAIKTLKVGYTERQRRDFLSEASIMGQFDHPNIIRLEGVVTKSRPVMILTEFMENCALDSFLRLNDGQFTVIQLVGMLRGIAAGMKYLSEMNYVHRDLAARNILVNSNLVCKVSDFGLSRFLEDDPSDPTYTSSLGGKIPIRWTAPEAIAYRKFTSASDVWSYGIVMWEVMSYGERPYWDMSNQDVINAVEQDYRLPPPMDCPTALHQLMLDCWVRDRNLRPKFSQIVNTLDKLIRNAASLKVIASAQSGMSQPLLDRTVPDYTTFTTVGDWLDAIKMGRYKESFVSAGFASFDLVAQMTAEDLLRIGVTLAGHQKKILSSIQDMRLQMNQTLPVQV
The assay is described as follows: EphB3(h) Eurofins kinase panel. The settings on record: Compound concentration 1.0 uM.

In assay [13] the target is Death-associated protein kinase 2 (Homo sapiens) (UniProt Q9UIK4). The assay is described as follows: DAPK2(h) Eurofins kinase panel. The settings on record: Compound concentration 1.0 uM.
Sequence of Death-associated protein kinase 2 (Homo sapiens) (Q9UIK4 whole entry, looked up): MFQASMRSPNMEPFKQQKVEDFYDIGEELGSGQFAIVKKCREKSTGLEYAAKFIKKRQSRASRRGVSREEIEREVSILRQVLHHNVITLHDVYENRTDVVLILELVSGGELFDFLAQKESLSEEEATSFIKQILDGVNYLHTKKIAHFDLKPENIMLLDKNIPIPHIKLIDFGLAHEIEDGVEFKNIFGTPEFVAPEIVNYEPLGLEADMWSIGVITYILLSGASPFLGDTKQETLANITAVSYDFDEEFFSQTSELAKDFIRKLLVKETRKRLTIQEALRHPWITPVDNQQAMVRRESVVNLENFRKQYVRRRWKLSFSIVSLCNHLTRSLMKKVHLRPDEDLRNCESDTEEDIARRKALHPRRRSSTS
In assay [14] the target is Tau-tubulin kinase 1 (Homo sapiens) (UniProt Q5TCY1). The assay is described as follows: TTBK1(h) Eurofins kinase panel. The settings on record: Compound concentration 1.0 uM.
In assay [15] the target is Serine/threonine-protein kinase 25 (Homo sapiens) (UniProt O00506). Nature of the assay: STK25(h) Eurofins kinase panel. The note with it: Compound concentration 1.0 uM.
Sequence of Serine/threonine-protein kinase 25 (Homo sapiens) (O00506 whole entry, looked up): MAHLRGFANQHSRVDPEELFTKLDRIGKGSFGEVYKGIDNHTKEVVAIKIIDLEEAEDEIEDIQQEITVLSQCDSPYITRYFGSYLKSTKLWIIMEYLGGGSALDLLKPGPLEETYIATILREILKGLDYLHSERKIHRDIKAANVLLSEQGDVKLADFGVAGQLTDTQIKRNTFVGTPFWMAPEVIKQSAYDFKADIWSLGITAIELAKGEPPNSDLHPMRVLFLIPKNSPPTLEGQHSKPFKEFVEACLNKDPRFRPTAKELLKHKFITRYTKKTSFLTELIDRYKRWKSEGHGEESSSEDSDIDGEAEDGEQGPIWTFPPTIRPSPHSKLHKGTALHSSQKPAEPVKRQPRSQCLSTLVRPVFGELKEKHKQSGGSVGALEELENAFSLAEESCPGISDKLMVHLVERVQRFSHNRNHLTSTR

For orientation: Ki means the equilibrium dissociation constant of an inhibitor or competing ligand from its target. What is called pKi is the Ki on a negative log10 scale, so that one unit is a factor of ten. A word on the IC50: it is the concentration needed to halve the response being measured.

Active and inactive are the calls of the source. No cut-off for these calls is given here. Some results are limits rather than exact numbers.

Sequence of Serine/threonine-protein kinase SIK2 (Homo sapiens) (Q9H0K1 whole entry, looked up): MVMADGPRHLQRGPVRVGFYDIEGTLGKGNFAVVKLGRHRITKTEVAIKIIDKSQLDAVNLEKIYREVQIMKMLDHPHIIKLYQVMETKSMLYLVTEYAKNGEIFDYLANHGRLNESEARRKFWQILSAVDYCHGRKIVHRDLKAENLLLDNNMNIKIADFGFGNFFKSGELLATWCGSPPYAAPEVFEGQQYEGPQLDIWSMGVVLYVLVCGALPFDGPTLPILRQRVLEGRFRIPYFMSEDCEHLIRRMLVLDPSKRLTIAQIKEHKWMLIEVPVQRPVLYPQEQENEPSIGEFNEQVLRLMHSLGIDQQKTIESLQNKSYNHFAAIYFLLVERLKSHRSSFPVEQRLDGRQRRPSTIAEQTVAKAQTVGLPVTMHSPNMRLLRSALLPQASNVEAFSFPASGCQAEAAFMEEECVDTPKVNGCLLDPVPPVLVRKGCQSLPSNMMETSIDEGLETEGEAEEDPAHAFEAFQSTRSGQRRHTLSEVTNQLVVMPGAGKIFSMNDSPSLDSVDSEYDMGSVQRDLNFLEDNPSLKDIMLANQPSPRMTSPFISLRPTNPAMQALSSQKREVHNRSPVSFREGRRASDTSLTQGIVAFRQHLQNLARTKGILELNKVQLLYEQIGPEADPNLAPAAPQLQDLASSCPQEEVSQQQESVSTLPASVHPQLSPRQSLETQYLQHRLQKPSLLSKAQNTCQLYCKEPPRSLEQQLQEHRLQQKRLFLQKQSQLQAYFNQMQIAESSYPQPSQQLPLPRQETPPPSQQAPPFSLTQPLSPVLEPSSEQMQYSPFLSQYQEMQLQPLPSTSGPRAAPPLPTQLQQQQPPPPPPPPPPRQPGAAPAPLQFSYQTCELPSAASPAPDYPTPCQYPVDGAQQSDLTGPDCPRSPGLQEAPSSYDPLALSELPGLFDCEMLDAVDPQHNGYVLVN
Sequence of Mitogen-activated protein kinase 1 (Homo sapiens) (P28482 whole entry): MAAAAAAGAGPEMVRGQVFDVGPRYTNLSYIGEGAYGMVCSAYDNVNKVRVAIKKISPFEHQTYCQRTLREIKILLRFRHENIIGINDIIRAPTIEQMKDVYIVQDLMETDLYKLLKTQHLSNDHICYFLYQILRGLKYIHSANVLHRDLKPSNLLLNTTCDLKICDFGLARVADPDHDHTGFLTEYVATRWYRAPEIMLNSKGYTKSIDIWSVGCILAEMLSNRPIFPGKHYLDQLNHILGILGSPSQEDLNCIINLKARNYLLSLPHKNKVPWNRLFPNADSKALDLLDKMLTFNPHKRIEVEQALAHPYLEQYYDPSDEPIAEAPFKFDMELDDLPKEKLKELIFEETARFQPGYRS
Sequence of Activin receptor type-1-like (Homo sapiens) (P37023 whole entry): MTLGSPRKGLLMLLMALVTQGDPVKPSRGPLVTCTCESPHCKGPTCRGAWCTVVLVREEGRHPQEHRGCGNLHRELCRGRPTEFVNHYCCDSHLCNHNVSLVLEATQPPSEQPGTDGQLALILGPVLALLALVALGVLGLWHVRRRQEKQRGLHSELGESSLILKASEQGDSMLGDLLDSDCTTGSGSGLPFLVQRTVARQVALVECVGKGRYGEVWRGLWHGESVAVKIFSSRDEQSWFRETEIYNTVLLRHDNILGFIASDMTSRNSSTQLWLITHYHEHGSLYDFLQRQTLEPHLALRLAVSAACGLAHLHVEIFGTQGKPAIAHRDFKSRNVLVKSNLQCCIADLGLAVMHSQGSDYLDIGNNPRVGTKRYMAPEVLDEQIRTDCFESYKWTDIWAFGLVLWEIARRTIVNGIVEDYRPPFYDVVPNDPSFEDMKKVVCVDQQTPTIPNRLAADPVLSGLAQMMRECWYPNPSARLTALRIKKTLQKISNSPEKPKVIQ

Take `CC1=C(C#N)C(c2ccc3c(c2)c(NC(=O)c2ccccc2C)nn3C)C(C#N)=C(C)N1` [BAY-974]: in [1], the Ki was 21 nM and the pKi turned out to be 7.69.
As to `CCc1ccccc1C(=O)Nc1n[nH]c2c(C)c(F)c(C3C(C#N)=C(C)N(C)C(C)=C3C#N)cc12` [BAY-3827], the % residual kinase activity was 138% in assay [2]; 68% in assay [4]; 102% in assay [5]; 99% in [6]; 109% in assay [7]; 88% in assay [8]. For the same compound, the % residual kinase activity in assay [9] is 84%; in assay [10], 105%; in assay [11], 99%; in assay [12], 109%; in assay [13], 96%; in [14], 104%. Further, in [15], the % residual kinase activity was 43%. Moreover, in [3], the IC50 was 7 nM (active). For the same compound, the “Cell Proliferation IC50” value with NCI-H460 was over 33000 nM.

The values are drawn from ChEMBL document CHEMBL4507319 (2021).
